Source: patent publication US7691842B2, “Tricyclic 6-alkylidene-penems as β-lactamase inhibitors” (Wyeth LLC, priority 2002, dated 2010)
Structures can show the parent of a compound that is named as a salt. Where two headings read alike, the source gives them in different places.

Legend:
[1] = target: class A β-lactamase TEM-1 (Escherichia coli, UniProt P62593); test: β-Lactamase inhibition, IC50 determination (nitrocefin, spectrophotometric); format: biochemical, E. Coli
Description: (§1) IC50 Determination for the Penem Inhibitor
(§2) β-Lactamase inhibitory activity of the penem inhibitors was determined spectrophotometrically as described by Bush et al., [Bush, K., Macalintal, C., Rasmussen, B. A., Lee, V. and Yang, Y. Antimicrobial Agents and Chemotherapy 1993, 37, 851]. Homogeneously purified class A β-lactamases TEM-1 from E. Coli and Imi-1 from Enterobacter cloacae, class B enzyme CcrA from Bacteroides fragilis and class C enzyme AmpC from Enterobacter cloaca were employed in the assay. The enzyme concentrations for TEM-1, Imi-1, CcrA and AmpC were 4.3, 7.1, 1.2 and 2.1 nM, respectively. A wide range of inhibitor concentrations were prepared in 50 mM PO4, pH 7.0 to include the possible IC50 values. The substrate used to initiate the enzyme reaction was nitrocefin at 50 μg/ml in the same buffer as the inhibitor. Initially the enzyme and inhibitor (20 μl each) were preincubated for 10 minutes at 25° C. prior to the addition of 160 μl volume of nitrocefin. Initial rates of hydrolysis were monitored for 5 minutes at 495 nm using a Molecular Devices Spectra Max 250 with kinetic protocol of SoftMax Program. Readings from the Spectra Max 250 were exported and transferred to Microsoft Excel. The percent of inhibition of each inhibitor concentration was calculated based on the control enzyme activity. The inhibitor concentration that caused a 50% reduction in the enzymatic activity (IC50) was determined graphically.

[2] = target: class A β-lactamase Imi-1 (Enterobacter cloacae, UniProt Q46991); test: as above; format: biochemical
class A β-lactamase Imi-1, sequence (Q46991 entry or part of it): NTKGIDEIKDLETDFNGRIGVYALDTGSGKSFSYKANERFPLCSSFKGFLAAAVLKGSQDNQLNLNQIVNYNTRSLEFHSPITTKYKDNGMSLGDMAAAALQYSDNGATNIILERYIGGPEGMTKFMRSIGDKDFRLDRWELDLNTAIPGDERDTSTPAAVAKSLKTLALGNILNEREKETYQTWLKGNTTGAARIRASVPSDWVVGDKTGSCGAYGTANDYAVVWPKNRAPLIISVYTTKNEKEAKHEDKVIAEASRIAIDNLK
Description: as §1, §2

class B enzyme CcrA = class B enzyme CcrA (Bacteroides fragilis, UniProt P25910); test: as above; format: biochemical; conditions: enzyme 1.2 nM; 10 min preincubation at 25° C.; nitrocefin 50 μg/ml; 50 mM PO4, pH 7.0; read-out: IC50 (nM) Class B Ccr
class B enzyme CcrA, sequence (P25910 19-249): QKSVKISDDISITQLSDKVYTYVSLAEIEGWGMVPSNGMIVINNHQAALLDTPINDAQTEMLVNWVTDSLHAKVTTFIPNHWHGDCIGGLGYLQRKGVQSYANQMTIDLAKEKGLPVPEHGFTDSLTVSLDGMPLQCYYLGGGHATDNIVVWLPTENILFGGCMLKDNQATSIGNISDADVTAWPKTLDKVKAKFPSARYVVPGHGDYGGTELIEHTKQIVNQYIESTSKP
Description: as §1, §2

class C enzyme AmpC = class C enzyme AmpC (Enterobacter cloacae, UniProt P05364); test: biochemical; set-up: species or system Enterobacter cloaca
class C enzyme AmpC, sequence (P05364 21-381): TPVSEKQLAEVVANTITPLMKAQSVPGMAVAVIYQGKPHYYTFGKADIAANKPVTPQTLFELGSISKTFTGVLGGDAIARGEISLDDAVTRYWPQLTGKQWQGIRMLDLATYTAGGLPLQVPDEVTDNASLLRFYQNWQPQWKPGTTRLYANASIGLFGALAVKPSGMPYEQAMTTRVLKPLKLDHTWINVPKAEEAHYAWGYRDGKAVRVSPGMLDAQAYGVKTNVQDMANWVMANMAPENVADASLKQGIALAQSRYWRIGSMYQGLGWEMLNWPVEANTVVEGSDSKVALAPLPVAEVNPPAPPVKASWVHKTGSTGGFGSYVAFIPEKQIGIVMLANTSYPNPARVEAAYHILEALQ
Description: as §1, §2

E. Cloacae GC1477 (Ampc) = test: Antimicrobial susceptibility testing, microbroth dilution MIC of piperacillin + inhibitor; format: cell-based; conditions: piperacillin combined with constant 4 μg/ml inhibitor; Inc: 35° C. for 18 hours
Description: (§3) Antimicrobial susceptibility testing. The in vitro activities of the antibiotics were determined by the microbroth dilution method as recommended by the National Committee for Clinical Laboratory Standards (NCCLS). (NCCLS. 2000. Methods for Dilution Antimicrobial Susceptibility Tests for Bacteria That Grow Aerobically; Approved Standards: M7-A5, vol. 19. National Committee for Clinical Laboratory Standards, Villanova, Pa.). Mueller-Hinton it broth (MHBII)(BBL Cockeysville, Md.), was used for the testing procedure. Microtiter plates containing 50 μl per well of two-fold serial dilutions of piperacillin combined with a constant amount (4 μg/ml) of a B-lactamase inhibitor (final concentration) were inoculated with 50 μl of inoculum to yield the appropriate density (10^5 CFU/ml) in 100 μl. The plates were incubated for 18-22 hours at 35° C. in ambient air.

E. Coli GC2203 = test: as above; format: cell-based; conditions: piperacillin combined with constant 4 μg/ml inhibitor; Inc: 35° C. for 18 hours
Description: as §3

E. Coli GC2844 = test: as above; format: cell-based; conditions: piperacillin combined with constant 4 μg/ml inhibitor; Inc: 35° C. for 18 hours
Description: as §3

E. Coli GC2847 (TEM-1) = test: as above; format: cell-based; conditions: piperacillin combined with constant 4 μg/ml inhibitor; Inc: 35° C. for 18 hours
Description: as §3

E. Coli GC2894 (Ampc) = test: as above; format: cell-based; conditions: piperacillin combined with constant 4 μg/ml inhibitor; Inc: 35° C. for 18 hours
Description: as §3

E. Coli GC2920 (IRT-2) = test: as above; format: cell-based; conditions: piperacillin combined with constant 4 μg/ml inhibitor; Inc: 35° C. for 18 hours
Description: as §3

[3] = tested on: P. aeruginos GC1764 (Ampc); test: as above; format: cell-based; conditions: piperacillin combined with constant 4 μg/ml inhibitor; Inc: 35° C. for 18 hours
Description: as §3

[4] = tested on: S. Marcescens GC1781 Sme-1 + Ampc; test: as above; format: cell-based; conditions: piperacillin combined with constant 4 μg/ml inhibitor; Inc: 35° C. for 18 hours
Description: as §3

[5] = enzyme 4.3 nM, 10 min preincubation at 25° C., nitrocefin 50 μg/ml, 50 mM PO4, pH 7.0, read-out: IC50 (nM) Class A TEM-1
[6] = enzyme 7.1 nM, 10 min preincubation at 25° C., nitrocefin 50 μg/ml, 50 mM PO4, pH 7.0, read-out: IC50 (nM) Class A Imi
[7] = enzyme 2.1 nM, 10 min preincubation at 25° C., nitrocefin 50 μg/ml, 50 mM PO4, pH 7.0, read-out: IC50 (nM) Class C AmpC

class A β-lactamase TEM-1, sequence (P62593 24-286 limits assumed): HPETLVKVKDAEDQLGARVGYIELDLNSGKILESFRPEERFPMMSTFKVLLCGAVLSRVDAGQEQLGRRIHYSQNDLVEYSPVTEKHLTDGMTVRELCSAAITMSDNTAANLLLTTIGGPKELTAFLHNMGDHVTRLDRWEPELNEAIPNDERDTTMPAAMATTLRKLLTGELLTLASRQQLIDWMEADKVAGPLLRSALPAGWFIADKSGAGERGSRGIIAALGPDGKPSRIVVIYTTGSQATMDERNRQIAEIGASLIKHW

SMILES	IC50 [1] [nM]	IC50 [2] [nM]	IC50 (class B enzyme CcrA) [nM]	IC50 (class C enzyme AmpC) [nM]	Minimal Inhibitory Concentration E. Cloacae GC1477 (Ampc) (E. Cloacae GC1477 (Ampc)) [µg/mL]	Minimal Inhibitory Concentration E. Coli GC2203 (E. Coli GC2203) [µg/mL]	Minimal Inhibitory Concentration E. Coli GC2844 (E. Coli GC2844) [µg/mL]	Minimal Inhibitory Concentration E. Coli GC2847 (TEM-1) (E. Coli GC2847 (TEM-1)) [µg/mL]	Minimal Inhibitory Concentration E. Coli GC2894 (Ampc) (E. Coli GC2894 (Ampc)) [µg/mL]	Minimal Inhibitory Concentration E. Coli GC2920 (IRT-2) (E. Coli GC2920 (IRT-2)) [µg/mL]	Minimal Inhibitory Concentration P. aeruginos GC1764 (Ampc) [3] [µg/mL]	Minimal Inhibitory Concentration S. Marcescens GC1781 Sme-1 + Ampc [4] [µg/mL]	IC50 [1, 5] [nM]	IC50 [2, 6] [nM]	IC50 (class C enzyme AmpC; [7]) [nM]
O=C(O)C1=CS[C@@H]2/C(=C\c3cn4c(cnc5ccccc54)n3)C(=O)N12 [Example 6, (5R),(6Z)-6-(Imidazo[1,2-a]quinoxaline-2-ylmethylene)-7-oxo-4-thia-1-azabicyclo[3.2.0]hepto-2-ene-2-carboxylic acid, sodium salt]	2.5	210	350	1.2											
O=C(O)C1=CS[C@@H]2/C(=C/c3ccc4c(c3)N(Cc3ccccc3)C(=O)c3ccccc3O4)C(=O)N12 [Example 9, (5R,6E)-6-[(10-benzyl-ii-oxo-10,11-dihydrodibenzo[b,f][1,4]oxazepin-8-yl)methylene]-7-oxo-4-thia-1-azabicyclo[3.2.0]hept-2-ene-2-carboxylic Acid]	3.5	3600	220	4.5											
Cc1cccc2sc3nc(/C=C4/C(=O)N5C(C(=O)O)=CS[C@H]45)cn3c12 [Example 13]	8.7	102	228	1.6											
O=C(O)C1=CS[C@@H]2/C(=C\c3cn4c(nc5ccccc54)s3)C(=O)N12 [Example 17, (5R),(6Z)-7-oxo-6-([1,3]thiazolo[3,2-a]benzimidazol-2-ylmethylene)-4-thia-1-azabicyclo[3.2.0]hept-2-ene-2-carboxylic acid]					>64	2	2	64	>64	4	32	8			
O=C(O)C1=CS[C@@H]2/C(=C\c3cn4nc5c(c4s3)CCC5)C(=O)N12 [Example 18, (5R),(6Z)-6-(7,8-dihydro-6H-cyclopenta[3,4]pyrazolo[5,1-b][1,3]thiazol-2-ylmethylene)-7-oxo-64-thia-1-azabicyclo[3.2.0]hept-2-ene-2-carboxylic acid]					>64	4	2	>64	>64	4	64	4			
Cn1c2ccccc2n2cc(/C=C3/C(=O)N4C(C(=O)O)=CS[C@H]34)nc12 [Example 20, (5R),(6Z)-8-[(9-methyl-9H-imidazo[1,2-a]benzimidazol-2-yl)methylene]-7-oxo-4-thia-1-azabicyclo[3.2.0]hept-2-ene-2-carboxylic acid]					>64	2	4	>64	32	4	32	2			
O=C([O-])C1=CS[C@@H]2/C(=C\c3cc4c(s3)-c3cccnc3SC4)C(=O)N12.[Na+] [Example 21, (5R,6Z)-7-oxo-6-(4H-thieno[2′,3′:45]thiopyrano[2,3-b]pyridin-2-ylmethylene)-4-thia-1-azabicyclo[3.2.0]hept-2-ene-2-carboxylic acid (Sodium salt)]			210		>64	2	2	>64	32	4	64	2	11	580	3.7
COc1nc2nc(/C=C3/C(=O)N4C(C(=O)O)=CS[C@H]34)cn2c2c1CCC2 [Example 26, (5R,6Z)-6-[(5-methoxy-7,8-dihydro-6H-cyclopenta[e]imidazo[1,2-a]pyrimidin-2-yl)methylene]-7-oxo-4-thia-1-azabicyclo[3.2.0]hept-2-ene-2-carboxylic acid, sodium salt]	48	63	420	10											
O=C(O)C1=CS[C@@H]2/C(=C\c3cc4oc5c(n4n3)CCOC5)C(=O)N12 [Example 31, (5R,6Z)-6-(7,8-dihydro-5H-pyrano[4,3-d]pyrazolo[5,1-b][1,3]oxazol-2-ylmethylene)-7-oxo-4-thia-1-azabicyclo[3.2.0]hept-2-ene-2-carboxylic acid, sodium salt]	4.3	140	130	4											
CCOC(=O)N1CCc2c(oc3cc(/C=C4/C(=O)N5C(C(=O)[O-])=CS[C@H]45)nn23)C1.[Na+] [Example 33, (5R,6Z)-6-{[6-(ethoxycarbonyl)-5,6,7,8-tetrahydropyrazolo[5′,1′:2,3][1,3]oxazolo[5,4-c]pyridin-2-yl]methylene}-7-oxo-4-thia-1-1-azabicyclo[3.2.0]hept-2-ene-2-carboxylic acid, sodium salt]			160		>64	2	2	64	64	4	>64	2	10	360	140
